For this experiment, the target named is T1, hTERT (catalytic subunit of human telomerase) (Homo sapiens, UniProt O14746).
T1 construct: gene TERT; with telomerase ribonucleoprotein (TERC RNA and accessory proteins)
The experiment in a line: test-tube TRAP assay. In kind it is biochemical.

A word on the IC50: it is the concentration that gives 50% inhibition. Low values mean greater potency in that assay, high ones weaker potency in that assay.

T1 sequence (O14746 whole entry): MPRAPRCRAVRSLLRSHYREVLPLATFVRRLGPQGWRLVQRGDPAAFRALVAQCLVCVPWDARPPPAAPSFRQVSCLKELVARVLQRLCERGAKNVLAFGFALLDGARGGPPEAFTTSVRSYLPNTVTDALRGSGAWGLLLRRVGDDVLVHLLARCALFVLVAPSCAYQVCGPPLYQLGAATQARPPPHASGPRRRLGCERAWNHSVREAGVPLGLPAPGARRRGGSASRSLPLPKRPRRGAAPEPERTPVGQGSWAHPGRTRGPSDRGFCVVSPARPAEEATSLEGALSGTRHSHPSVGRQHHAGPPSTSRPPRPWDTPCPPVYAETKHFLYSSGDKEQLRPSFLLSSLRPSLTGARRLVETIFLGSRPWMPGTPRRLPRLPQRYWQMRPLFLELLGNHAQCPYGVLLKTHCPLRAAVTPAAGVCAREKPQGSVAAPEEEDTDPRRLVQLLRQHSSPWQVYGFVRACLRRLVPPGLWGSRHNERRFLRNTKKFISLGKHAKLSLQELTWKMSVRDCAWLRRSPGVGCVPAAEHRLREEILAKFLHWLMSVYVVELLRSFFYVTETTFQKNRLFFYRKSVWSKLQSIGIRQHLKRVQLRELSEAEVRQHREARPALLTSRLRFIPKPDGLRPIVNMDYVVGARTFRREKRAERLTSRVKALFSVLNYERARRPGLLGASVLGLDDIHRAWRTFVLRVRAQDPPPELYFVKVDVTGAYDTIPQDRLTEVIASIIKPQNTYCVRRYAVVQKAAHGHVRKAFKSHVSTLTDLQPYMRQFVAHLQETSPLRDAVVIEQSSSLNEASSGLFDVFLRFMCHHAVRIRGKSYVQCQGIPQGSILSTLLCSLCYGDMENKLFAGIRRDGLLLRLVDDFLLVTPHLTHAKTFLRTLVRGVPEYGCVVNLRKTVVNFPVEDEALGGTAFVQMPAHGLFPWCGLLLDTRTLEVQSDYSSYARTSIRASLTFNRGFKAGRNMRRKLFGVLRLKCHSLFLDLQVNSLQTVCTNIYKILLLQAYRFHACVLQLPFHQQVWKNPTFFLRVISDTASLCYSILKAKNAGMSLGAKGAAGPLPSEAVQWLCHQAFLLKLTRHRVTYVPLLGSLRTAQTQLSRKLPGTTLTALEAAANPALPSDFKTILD

For `C/C(=C\C(=O)Nc1ccccc1C(=O)O)c1ccc2ccccc2c1` [BIBR1532], the IC50 worked out at 64.1 ± 2.53 µM.

Source of the values: article PMC9701690, “Teloxantron inhibits the processivity of telomerase with preferential DNA damage on telomeres” (Cell Death & Disease, 2022).
